According to publication PMC8990417, “^18F-labeled Dimer-Sansalvamide A Cyclodecapeptide: A Novel Diagnostic Probe to Discriminate Pancreatic Cancer from Inflammation in a Nude Mice Model” (Journal of Cancer, 2022):

What was measured:
PL45 cells = test: MTT bioactivity assay (cell viability); type: cell-based, human; details: 72 hours incubation
Experimental: A 3-(4,5-Dimethylthiazol-2-yl)-2,5-Diphenyltetrazolium Bromide (MTT) (Thermo Fisher Scientifc, NY, USA) assay was used to test the bioactivity of NOTA-Dimer-San A cyclodecapeptide. PL45 cells (5000 cells) were seeded in a 96-well plate and incubated overnight. […]. Each concentration was performed in triplicate, and the drug was incubated with the cells for 72 hours. Then 10 μL of MTT (5 mg/mL) was added into each well, incubated for 4 hours until a purple precipitate was visible, and then 100 μL of a detergent reagent was added and incubated until the crystal was dissolved. Finally, the optical density (proportional to the number of live cells) was assessed with a Synergy H1 Hybrid Reader (BioTek® Instruments Inc., Winooski, Vermont, USA) at 570 nm. The cell viability (%) was calculated with GraphPad Prism 5.0 software (GraphPad Software Inc., San Diego, CA, USA).

Hsp90 in PL45 cells = target: T1, Hsp90 in PL45 cells (Homo sapiens, UniProt P07900); test: Confocal cell immunofluorescence; type: cell-based; details: biotin-peptide detected with Cy5 labeled avidin, anti-Hsp90α antibody co-stain
T1 construct: endogenous in cells; host or cells: PL45 cells
Experimental: PL45 cells (3-5 × 10^5) were seeded in a confocal plate with 500 µL of culture medium and incubated for 24 hours at 37°C with 5% CO2. The cell culture medium was then removed, and the cells were rinsed 3 times using phosphate buffered saline (PBS). The cells were fixed using 400 µL of 4% paraformaldehyde (pH 7.4) for 20 minutes at room temperature (RT, ~20°C). Then 500 µL of 3% Bovine Serum Albumin (BSA) (Sigma-Aldrich Corp., St. Louis, MO, USA) was added and incubated for 30 minutes at RT for blocking. The cells were washed and then 250 µL of diluted anti-hsp90α antibody (1:250) or biotine-Dimer-San A peptide was added and incubated for 24 hours at 4°C. The cells were washed, and the desired concentration of the fluorescent-dye-labeled secondary antibody (Abcam, Cambridge, UK) or Cy5 labeled avidin (Vector Laboratories, Burlingame, CA, USA) was added and protected from light at RT for 60 minutes. The supernatant was discarded, and the cells were washed, then a drop of antifade mounting medium with DAPI (Vector Laboratories, Burlingame, CA, USA) was added and incubated for 45 minutes. The target antigen was visualized by confocal fluorescence microscopy Zeiss LSM 880 Airyscan (Carl Zeiss AG, Oberkochen, Germany).

[1] = tested on: pancreatic cancer PL45 cells; parameters: method as in PMID 20014866, PMID 29202402; details: read-out: IC50 (inhibition of pancreatic cancer PL45 cells); cited from earlier work

Molecule	IC50 (PL45 cells) [nM]	binding / co-localization with Hsp90 (confocal immunofluorescence) (Hsp90 in PL45 cells)	IC50 [1] [nM]
C=CCNC1=C2C[C@@H](C)C[C@H](OC)[C@H](O)[C@@H](C)/C=C(\C)[C@H](OC(N)=O)[C@@H](OC)/C=C\C=C(/C)C(=O)NC(=CC1=O)C2=O [17AAG, 17-allylaminogeldanamycin]	127		
Dimer-Sansalvamide A cyclodecapeptide [Dimer-San A]		bound to the Hsp90 target	1 to 20
